Literature values in patent US20070190114A1, “Antioxidant health lozenges” (priority 2006, published 2007).

Tests used:
[1] = daily dose of 600 mg
peripheral lymphocytes = peripheral lymphocytes in smokers
alveolar macrophages = alveolar macrophages in smokers

CC(=O)N[C@@H](CS)C(=O)O [N-acetyl cysteine]
cancer chemopreventive effect [1]: effective cancer chemopreventive agent

O=C(O[C@@H]1Cc2c(O)cc(O)cc2O[C@@H]1c1cc(O)c(O)c(O)c1)c1cc(O)c(O)c(O)c1 [epigallocatechin gallate]
sister-chromatid exchange (peripheral lymphocytes): stabilize sister-chromatid exchange in peripheral lymphocytes in smokers to a level comparable to non-smokers

Oc1ccc(C=Cc2cc(O)cc(O)c2)cc1 [resveratrol]
basal release of inflammatory cytokine (alveolar macrophages): inhibits basal release of inflammatory cytokine from alveolar macrophages in smokers
